Measured values from patent publication US10493099B2, “Compositions containing arsenic and their use in methods of treatment” (Eupharma Pty Ltd, priority 2015, dated 2019).

Legend:
[1] = Dissolution studies of arsenic salts in 100 mL water with stirring at room temperature (pH 7 and pH 1-2); format: physicochemical; conditions: for Dissolution Time at pH 1-2 / Final pH after dissolution / Dissolution Time at pH 7: 100 mL, stirring, room temperature
[2] = all three mediums: simulated gastric fluid pH 1.24, pH 4.5, pH 7.0; 150 mls, 37° C., spin bar
Method: 100 mg of arsenic trioxide was dissolved in 10 mL of 0.5M NaOH with heat (<ten minutes). 250 mg Sodium Carbonate was then added (dissolves almost straight away) and excess water evaporated.
Dissolution experiments were then carried out on the AC01 at 3 different pH levels. […] Prior to addition of the capsules 150 mls of the dissolution solution was heated to 37° C. and the solution contained a spin bar at a speed of 2. The appropriate capsule was then added.

[3] = Dissolution of 1 mg arsenic trioxide capsule in 0.1M HCl and purified water with 0.5% BKC; format: physicochemical; conditions: 1 mg capsule RX500950.01, 500 ml medium, 37° C., paddle 50 rpm
Method: To manufacture the components for insertion into the capsule all ingredients were sieved through a 500 μm sieve into a sealable jar and blended for 20 minutes in a tumble blender. The blended powder was filled into the Size 4 white hard gelatin capsules at a fill weight of 140 mg.
For the dissolution experiments the medium was 0.1M HCl and purified water with a volume of 500 ml also containing 0.5% benzalkonium chloride (BKC) at 37° C. The paddle stir speed was 50 rpm. The capsule shell disrupted within three minutes and all contents were expelled in less than five minutes. Only 5% arsenic trioxide was dissolved after 20 minutes. Even after 19 hours only 60% was dissolved. The presence of the citric acid reduced the pH of the medium from ˜8.0 to ˜7.3. Given the anticipated increase in solubility at a higher pH, these experiments were repeated at a higher pH as indicated in the tables below wherein the mean and range values represented percentage dissolution of the arsenic trioxide.

[4] = Dissolution of arsenic trioxide in 0.1M NaOH (pH 13); format: physicochemical
Method: A further dissolution experiment was conducted in a solution of 0.1M NaOH (pH 13) and, as expected, more arsenic trioxide could be dissolved with a 100% level reached between 15-20 minutes as indicated in the table below.

[5] = Trial 1: test dissolution of arsenic trioxide solely in sodium bicarbonate solution; format: physicochemical; conditions: 50 mg in 2540 mg sodium bicarbonate / approximately 27.2 mls water, with heating
Method: 2540 mg of Sodium Bicarbonate was dissolved in approximately 27.2 mls water (dissolved in less than 5 minutes). 50 mg Arsenic Trioxide was then added to this bicarbonate solution.

[6] = cited from earlier work
[7] = not dissolved within the time given

## O=[As][O-].[Na+] [Sodium meta arsenite, sodium meta arsenite]
[1]
  Dissolution Time at pH 1-2: 55 seconds - Final pH after
[1]; dissolution at pH 1-2
  Final pH after dissolution: dissolution = 1.27
[1]; dissolution at pH 7
  Final pH after dissolution: pH after dissolution = 10.2
[1]; pH 1-2
  Time to dissolve at pH 1-2: less than one
[1]; pH 7
  Time to dissolve at pH 7: less than 2 minutes

## Sodium arsenic carbonate [AC01]
[1]
  Dissolution Time at pH 1-2: <5-10 seconds - Final pH
  Dissolution Time at pH 7: 40 seconds - Final pH after
[1]; dissolution at pH 1-2
  Final pH after dissolution: after dissolution = 1.13
[1]; dissolution at pH 7
  Final pH after dissolution: dissolution = pH 8.95
[2]
  Time to dissolution of powder from capsule: less than two

## Arsenic trioxide
[3]; after 20 minutes
  arsenic trioxide dissolved: 5%
[3]; after 19 hours
  arsenic trioxide dissolved: 60%
[4]
  Time at which 100% dissolution level is reached: 15 to 20 min
[4]; 5 minutes
  % Recovered (weight Corrected) Mean: 12%
[4]; 10 minutes
  % Recovered (weight Corrected) Mean: 65%
[4]; 15 minutes
  % Recovered (weight Corrected) Mean: 96%
[4]; 20 minutes
  % Recovered (weight Corrected) Mean: 109%
[4]; 25 minutes
  % Recovered (weight Corrected) Mean: 116%
[4]; 30 minutes
  % Recovered (weight Corrected) Mean: 114%
[1]; [7]
  Dissolution Time at pH 1-2: Not dissolved in 3 hours
  Dissolution Time at pH 7: Not dissolved in 3 hours
[5]
  Dissolution in sodium bicarbonate solution: would not dissolve even with heating

## O=C([O-])O.[Na+] [Sodium Bicarbonate]
[6]
  pH 0.1M solution: 8.3
